Experimental findings from patent US4575497A, “3, 3", 4"-Tri-O-acylspiramycin I” (Kyowa Hakko Kogyo Co., Ltd, priority 1983, dated 1986) are described below.

SMILES strings stand for the structures.

The subject of test [1] is Staphylococcus aureus KB199. Briefly: MIC against Staphylococcus aureus KB199 (B). The class given is cell-based. Particulars: Heart infusion agar (pH 7.0). The source says:
(§1) The minimum inhibitory concentration (MIC) of Compound (I) is shown in Table 4 in comparison with that of spiramycin I.
(§2) Minimum inhibitory concentration (MIC, μ g/ml)
(§3) Remark: medium used: Heart infusion agar (pH 7.0)
B: Staphylococcus aureus KB199

Test [2] relates to Staphylococcus aureus KB210. Briefly: MIC against Staphylococcus aureus KB210 (A). It counts as cell-based. Particulars: Heart infusion agar (pH 7.0).
From the text: as §1, §2, §3
A: Staphylococcus aureus KB210

Test [3] relates to Bacillus cereus KB143. The experiment in a line: MIC against Bacillus cereus KB143 (D). Particulars: Heart infusion agar (pH 7.0). The class given is cell-based.
From the text: as §1, §2, §3
D: Bacillus cereus KB143

The test system of test [4] is Micrococcus ruteus KB212. The experiment in a line: MIC against Micrococcus ruteus KB212 (E). It counts as cell-based. Particulars: Heart infusion agar (pH 7.0).
From the text: as §1, §2, §3
E: Micrococcus ruteus KB212

In test [5] the test system is Klebsiella pneumoniae KB214. Briefly: MIC against Klebsiella pneumoniae KB214 (G). The class given is cell-based. Particulars: Heart infusion agar (pH 7.0).
From the text: as §1, §2, §3
G: Klebsiella pneumoniae KB214

The test system of test [6] is Escherichia coli KB213. The experiment in a line: MIC against Escherichia coli KB213 (F). The class given is cell-based. Particulars: Heart infusion agar (pH 7.0).
From the text: as §1, §2, §3
F: Escherichia coli KB213

Test [7] has as its system Streptococcus pneumoniae Type III. The experiment in a line: Infection-healing effect, mice protection test (Test Example). It counts as in vivo. Particulars: for Number of survived mice out of 10 mice: 60 mg/kg in 0.3% CMC, orally just after i.p. inoculation (1.1×10^2 cfu/mouse), 7th day. Here is the method:
A test example of the therapeutic effect of Compound (I) in experimental test mice protection test will be given below:
Animal: ddY-strain male mice, 19±lg, one group consisting of ten mice.
Test bacterium: Streptococcus pneumoniae Type III, Inoculation rate: 1.1×10^2 cfu/mouse.
The predetermined amount of the precultured test bacteria was inoculated via i.p.
Medicament administration: 60 mg/kg of each of the medicaments was suspended in 0.3% CMC, and orally administered just after the inoculation of bacteria.

Test [8] deals with Bacillus subtilis KB211. The experiment in a line: MIC against Bacillus subtilis KB211 (C). Particulars: Heart infusion agar (pH 7.0). The class given is cell-based.
From the text: as §1, §2, §3
C: Bacillus subtilis KB211

With `CCC(=O)OC1(C)CC(OC2C(C)OC(OC3C(CC=O)CC(C)C(OC4CCC(N(C)C)C(C)O4)C=CC=CCC(C)OC(=O)CC(OC(C)=O)C3OC)C(O)C2N(C)C)OC(C)C1OC(C)=O` (centres unmarked) [Compound 5, 3, 4"-di-O-acetyl-3"-O-propionylspiramycin I], the “Minimum inhibitory concentration (MIC)” value in test [1] is recorded as above 100 μ g/ml; in test [2], 3.12 μ g/ml; in test [3], 1.56 μ g/ml; in test [4], below 0.1 μ g/ml; in test [5], above 100 μ g/ml; in test [6] it was above 100 μ g/ml. Also, in test [8], the “Minimum inhibitory concentration (MIC)” value was 3.12 μ g/ml. Further, in test [7], the “Number of survived mice out of 10 mice” value was 3 mice out of 10 mice.
Take `CCCC(=O)OC1(C)CC(OC2C(C)OC(OC3C(CC=O)CC(C)C(OC4CCC(N(C)C)C(C)O4)C=CC=CCC(C)OC(=O)CC(OC(C)=O)C3OC)C(O)C2N(C)C)OC(C)C1OC(C)=O` (centres unmarked) [Compound 6, 3, 4"-di-O-acetyl-3"-O-butyrylspiramycin I]: the “Minimum inhibitory concentration (MIC)” value in test [1] is recorded as above 100 μ g/ml; in test [2], 6.25 μ g/ml; in test [3], 1.56 μ g/ml; in test [4] it was 0.2 μ g/ml; in test [5] it was above 100 μ g/ml; in test [6], above 100 μ g/ml. For the same compound, the “Minimum inhibitory concentration (MIC)” value in test [8] is listed as 3.12 μ g/ml. Besides, the “Number of survived mice out of 10 mice” value in test [7] is on record as 10 mice out of 10 mice. The “therapeutic effect in an infection-healing test in mice” value in test [7] (Streptococcus pneumoniae Type III, compared with acetylspiramycin and 3, 3", 4"-tri-O-acetylspiramycin I) was “more excellent therapeutic effect than acetylspiramycin and 3, 3", 4"-tri-O-acetylspiramycin I”.
With `CCCC(=O)OC1C(C)OC(OC2C(C)OC(OC3C(CC=O)CC(C)C(OC4CCC(N(C)C)C(C)O4)C=CC=CCC(C)OC(=O)CC(OC(C)=O)C3OC)C(O)C2N(C)C)CC1(C)OC(C)=O` (centres unmarked) [Compound 2, 3, 3"-di-O-acetyl-4"-O-butyrylspiramycin I], the “Minimum inhibitory concentration (MIC)” value is above 100 μ g/ml in test [1]; 1.56 μ g/ml in test [2]; 1.56 μ g/ml in test [3]; below 0.1 μ g/ml in test [4]; 100 μ g/ml in test [5]; above 100 μ g/ml in test [6]. For the same compound, in test [8], the “Minimum inhibitory concentration (MIC)” value is reported as 1.56 μ g/ml. Further, the “Number of survived mice out of 10 mice” value in test [7] is reported as 5 mice out of 10 mice.
Regarding `CCC(=O)OC1C(C)OC(OC2C(C)OC(OC3C(CC=O)CC(C)C(OC4CCC(N(C)C)C(C)O4)C=CC=CCC(C)OC(=O)CC(OC(C)=O)C3OC)C(O)C2N(C)C)CC1(C)OC(C)=O` (centres unmarked) [Compound 1, 3, 3"-di-O-acetyl-4"-O-propionylspiramycin I], the “Minimum inhibitory concentration (MIC)” value in test [1] is recorded as above 100 μ g/ml; in test [2] it was 3.12 μ g/ml; in test [3], 3.12 μ g/ml; in test [4], below 0.1 μ g/ml; in test [5], above 100 μ g/ml; in test [6] it was above 100 μ g/ml. Further, in test [8], the “Minimum inhibitory concentration (MIC)” value is given as 1.56 μ g/ml. For the same compound, the “Number of survived mice out of 10 mice” value in test [7] is 5 mice out of 10 mice.
For the compound `CCC(=O)OC1CC(=O)OC(C)CC=CC=CC(OC2CCC(N(C)C)C(C)O2)C(C)CC(CC=O)C(OC2OC(C)C(OC3CC(C)(OC(=O)CC)C(OC(C)=O)C(C)O3)C(N(C)C)C2O)C1OC` (centres unmarked) [Compound 3, 3,3"-di-O-propionyl-4"-O-acetylspiramycin I], the “Minimum inhibitory concentration (MIC)” value is given as above 100 μ g/ml in test [1]; 3.12 μ g/ml in test [2]; 3.12 μ g/ml in test [3]; below 0.1 μ g/ml in test [4]; above 100 μ g/ml in test [5]; above 100 μ g/ml in test [6]. In addition, in test [8], the “Minimum inhibitory concentration (MIC)” value turned out to be 3.12 μ g/ml. The “Number of survived mice out of 10 mice” value in test [7] was 5 mice out of 10 mice.
